Measurements taken from PubChem BioAssay AID1963854 (Molecular Pharmacology Branch, DTP, NCI, 2024).

System: 186277-243-T-J2-PDC complex spheroid viability
Assay: Anticancer human tumor 186277-243-T-J2-PDC patient-derived colon adenocarcinoma cell line growth inhibition [POLQ]
Conditions: for IC50: curve of first compound; for viability, T/C: stronger effect = lower value; active means viability on the fitted dose curve at most 10% of control; inactive means the rest
Summary of the method: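 Three-cell-type spheroids modelling solid tumor plus stroma served as the readout system; POL inhibitors were tested individually and in combination, concentration ranges set by clinical Cmax where known.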

[1] = second compound 0.0316 µM, first compound 0.0316 µM
[2] = second compound 0.0316 µM, first compound 0.1 µM
[3] = second compound 0.0316 µM, first compound 0.316 µM
[4] = second compound 0.0316 µM, first compound 1 µM
[5] = second compound 0.0316 µM, first compound 3.16 µM
[6] = second compound 0.0316 µM, first compound 10 µM
[7] = second compound 0.1 µM, first compound 0.0316 µM
[8] = second compound 0.1 µM, first compound 0.1 µM
[9] = second compound 0.1 µM, first compound 0.316 µM
[10] = second compound 0.1 µM, first compound 1 µM
[11] = second compound 0.1 µM, first compound 3.16 µM
[12] = second compound 0.1 µM, first compound 10 µM
[13] = second compound 0.316 µM, first compound 0.0316 µM
[14] = second compound 0.316 µM, first compound 0.1 µM
[15] = second compound 0.316 µM, first compound 0.316 µM
[16] = second compound 0.316 µM, first compound 1 µM
[17] = second compound 0.316 µM, first compound 3.16 µM
[18] = second compound 0.316 µM, first compound 10 µM
[19] = second compound 1 µM, first compound 0.0316 µM
[20] = second compound 1 µM, first compound 0.1 µM
[21] = second compound 1 µM, first compound 0.316 µM
[22] = second compound 1 µM, first compound 1 µM
[23] = second compound 1 µM, first compound 3.16 µM
[24] = second compound 1 µM, first compound 10 µM
[25] = second compound 3.16 µM, first compound 0.0316 µM
[26] = second compound 3.16 µM, first compound 0.1 µM
[27] = second compound 3.16 µM, first compound 0.316 µM
[28] = second compound 3.16 µM, first compound 1 µM
[29] = second compound 3.16 µM, first compound 3.16 µM
[30] = second compound 3.16 µM, first compound 10 µM
[31] = second compound 10 µM, first compound 0.0316 µM
[32] = second compound 10 µM, first compound 0.1 µM
[33] = second compound 10 µM, first compound 0.316 µM
[34] = second compound 10 µM, first compound 1 µM
[35] = second compound 10 µM, first compound 3.16 µM
[36] = second compound 10 µM, first compound 10 µM
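Further: spheroids exposed to compounds for seven days.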
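Wherever viability, T/C is given: 100% = DMSO vehicle control viability.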

CC1COCCN1c1cc(C2(O)CC3CCC(C2)O3)c2cnn(-c3ccn[nH]3)c2n1 (stereo not drawn) + COC1C(OC(N)=O)C(O)C(Oc2ccc3c(O)c(NC(=O)c4ccc(O)c(CC=C(C)C)c4)c(=O)oc3c2C)OC1(C)C
inactive: viability, T/C [1] 56.8% | viability, T/C [2] 11% | viability, T/C [7] 60% | viability, T/C [13] 60% | viability, T/C [14] 12.3% | viability, T/C [19] 56.2% | viability, T/C [20] 12.9% | viability, T/C [25] 63% | viability, T/C [31] 47.8%
< 0.0316 µM: IC50 (second compound 10 µM)
0.0403 µM: IC50 (second compound 0.316 µM)
0.0396 µM: IC50 (second compound 0.1 µM)
active: viability, T/C [3] 4.13% | viability, T/C [4] 2.97% | viability, T/C [5] 3.3% | viability, T/C [6] 3.36% | viability, T/C [8] 8.95% | viability, T/C [9] 3.87% | viability, T/C [10] 2.7% | viability, T/C [11] 3.24% | viability, T/C [12] 3.18% | viability, T/C [15] 4.98% | viability, T/C [16] 2.92% | viability, T/C [17] 3.45% | viability, T/C [18] 3.48% | viability, T/C [21] 3.79% | viability, T/C [22] 2.66% | viability, T/C [23] 3.46% | viability, T/C [24] 3.76% | viability, T/C [26] 9.45% | viability, T/C [27] 4.01% | viability, T/C [28] 2.86% | viability, T/C [29] 3.33% | viability, T/C [30] 3.12% | viability, T/C [32] 7.48% | viability, T/C [33] 4.86% | viability, T/C [34] 2.78% | viability, T/C [35] 4.14% | viability, T/C [36] 3.73%
0.0418 µM: IC50 (second compound 3.16 µM)
0.0372 µM: IC50 (second compound 1 µM)
0.0375 µM: IC50 (second compound 0.0316 µM)

CC(C)n1c(=O)n(C)c2cnc3cc(F)c(-c4ccc(OCCCN5CCCCC5)nc4)cc3c21 + COC1C(OC(N)=O)C(O)C(Oc2ccc3c(O)c(NC(=O)c4ccc(O)c(CC=C(C)C)c4)c(=O)oc3c2C)OC1(C)C
> 10 µM: IC50 (second compound 0.0316 µM) | IC50 (second compound 0.1 µM) | IC50 (second compound 0.316 µM) | IC50 (second compound 1 µM) | IC50 (second compound 3.16 µM) | IC50 (second compound 10 µM)
inactive: viability, T/C [1] 104% | viability, T/C [2] 97.4% | viability, T/C [3] 98.1% | viability, T/C [4] 93.2% | viability, T/C [5] 94.3% | viability, T/C [6] 116% | viability, T/C [7] 111% | viability, T/C [8] 87.2% | viability, T/C [9] 103% | viability, T/C [10] 101% | viability, T/C [11] 107% | viability, T/C [12] 92.2% | viability, T/C [13] 99.1% | viability, T/C [14] 98.3% | viability, T/C [15] 96.1% | viability, T/C [16] 97.9% | viability, T/C [17] 114% | viability, T/C [18] 108% | viability, T/C [19] 110% | viability, T/C [20] 93.7% | viability, T/C [21] 86.6% | viability, T/C [22] 107% | viability, T/C [23] 101% | viability, T/C [24] 101% | viability, T/C [25] 98.2% | viability, T/C [26] 95.2% | viability, T/C [27] 105% | viability, T/C [28] 106% | viability, T/C [29] 92.5% | viability, T/C [30] 102% | viability, T/C [31] 102% | viability, T/C [32] 109% | viability, T/C [33] 115% | viability, T/C [34] 115% | viability, T/C [35] 108% | viability, T/C [36] 89.8%

CNCc1ccc(-c2[nH]c3cc(F)cc4c3c2CCNC4=O)cc1 + Nc1ccc(C#CCN(C(=O)Cc2ncc(C(F)(F)F)cc2C(F)(F)F)c2ccc(F)cc2)nn1
> 10 µM: IC50 (second compound 0.0316 µM) | IC50 (second compound 0.1 µM) | IC50 (second compound 0.316 µM) | IC50 (second compound 1 µM) | IC50 (second compound 3.16 µM) | IC50 (second compound 10 µM)
inactive: viability, T/C [1] 121% | viability, T/C [2] 104% | viability, T/C [3] 129% | viability, T/C [4] 85.5% | viability, T/C [5] 112% | viability, T/C [6] 126% | viability, T/C [7] 101% | viability, T/C [8] 96.7% | viability, T/C [9] 108% | viability, T/C [10] 95.5% | viability, T/C [11] 125% | viability, T/C [12] 121% | viability, T/C [13] 100% | viability, T/C [14] 109% | viability, T/C [15] 103% | viability, T/C [16] 102% | viability, T/C [17] 105% | viability, T/C [18] 116% | viability, T/C [19] 92.4% | viability, T/C [20] 118% | viability, T/C [21] 95% | viability, T/C [22] 111% | viability, T/C [23] 98.7% | viability, T/C [24] 132% | viability, T/C [25] 96.9% | viability, T/C [26] 118% | viability, T/C [27] 100% | viability, T/C [28] 99.6% | viability, T/C [29] 111% | viability, T/C [30] 110% | viability, T/C [31] 108% | viability, T/C [32] 106% | viability, T/C [33] 106% | viability, T/C [34] 103% | viability, T/C [35] 88.2% | viability, T/C [36] 116%

CCc1cc2c(N3CCc4c(cc(Cn5ccnc5)cc4-c4cn(C)nc4C(F)(F)F)C3=O)cc(C)nc2c(OC)n1 + COC1C(OC(N)=O)C(O)C(Oc2ccc3c(O)c(NC(=O)c4ccc(O)c(CC=C(C)C)c4)c(=O)oc3c2C)OC1(C)C
inactive: viability, T/C [1] 100% | viability, T/C [2] 91.7% | viability, T/C [3] 101% | viability, T/C [4] 80.4% | viability, T/C [5] 80.5% | viability, T/C [6] 77.4% | viability, T/C [7] 88.1% | viability, T/C [8] 92.2% | viability, T/C [9] 92.7% | viability, T/C [10] 96.9% | viability, T/C [11] 100% | viability, T/C [12] 80.4% | viability, T/C [13] 95.6% | viability, T/C [14] 101% | viability, T/C [15] 101% | viability, T/C [16] 93.5% | viability, T/C [17] 85.3% | viability, T/C [18] 84.4% | viability, T/C [19] 99.1% | viability, T/C [20] 101% | viability, T/C [21] 111% | viability, T/C [22] 104% | viability, T/C [23] 104% | viability, T/C [24] 73.7% | viability, T/C [25] 93.4% | viability, T/C [26] 96.6% | viability, T/C [27] 86.3% | viability, T/C [28] 86.2% | viability, T/C [29] 98.9% | viability, T/C [30] 72.4% | viability, T/C [31] 96.5% | viability, T/C [32] 102% | viability, T/C [33] 104% | viability, T/C [34] 107% | viability, T/C [35] 99.2% | viability, T/C [36] 86.1%
> 10 µM: IC50 (second compound 0.0316 µM) | IC50 (second compound 0.1 µM) | IC50 (second compound 0.316 µM) | IC50 (second compound 1 µM) | IC50 (second compound 3.16 µM) | IC50 (second compound 10 µM)
